Results as given in publication PMC5731253 (Journal of medicinal chemistry, 2017).

Key:
[1] = tested on: thymidine kinase-deficient (TK−) HSV-1 KOS strain; format: cell-based, herpes simplex virus type 1; conditions: HEL cell cultures; for Antiviral Activity EC50 HSV-1 TK (KOS): TK-deficient, ACV-resistant strain
[2] = tested on: human embryonic lung (HEL) fibroblasts; experiment: Minimum cytotoxic concentration, HEL cell morphology

SMILES	Antiviral Activity EC50 HSV-1 TK (KOS) [1]	Cytotoxicity MCC ([2]; Table 3 (HSV assays))	Cytotoxicity MCC ([2]; Table 4 (HCMV/VZV assays))	fold difference in EC50 values between HSV-1 TK+ and TK− strains [1]
CC(C)OC(=O)[C@H](C)NP(=O)(OCC(COP(=O)(N[C@@H](C)C(=O)OC(C)C)Oc1cccc2ccccc12)OCn1cnc2c(=O)[nH]c(N)nc21)Oc1cccc2ccccc12 (stereo partly drawn) [Compound 15, 2-amino-9-{[(1,3-dihydroxypropan-2-yl)oxy]methyl}-6,9-dihydro-1H-purin-6-one-[1-naphthyl(isopropoxy-L-alaninyl)] diphosphate]	marginal activity	≥100 µM	>100 µM	–
C[C@H](NP(=O)(OCC(COP(=O)(N[C@@H](C)C(=O)OCc1ccccc1)Oc1ccccc1)OCn1cnc2c(=O)[nH]c(N)nc21)Oc1ccccc1)C(=O)OCc1ccccc1 (stereo partly shown) [Compound 17]	considerable activity	>100 µM	>100 µM	–
C[C@H](NP(=O)(OCC(COP(=O)(N[C@@H](C)C(=O)OCc1ccccc1)Oc1cccc2ccccc12)OCn1cnc2c(=O)[nH]c(N)nc21)Oc1cccc2ccccc12)C(=O)OCc1ccccc1 (stereo partly shown) [Compound 18]	–	–	>50 µM	< 2.5 fold
CC(C)(NP(=O)(OCC(COP(=O)(NC(C)(C)C(=O)OCc1ccccc1)Oc1ccccc1)OCn1cnc2c(=O)[nH]c(N)nc21)Oc1ccccc1)C(=O)OCc1ccccc1 (stereo not shown) [Compound 19]	–	–	–	< 2.5 fold
CC(C)(NP(=O)(OCC(COP(=O)(NC(C)(C)C(=O)OCc1ccccc1)Oc1cccc2ccccc12)OCn1cnc2c(=O)[nH]c(N)nc21)Oc1cccc2ccccc12)C(=O)OCc1ccccc1 (stereo not shown) [Compound 21]	considerable activity	>100 µM	–	–
CC(C)(NP(=O)(OCC(CO)OCn1cnc2c(=O)[nH]c(N)nc21)Oc1cccc2ccccc12)C(=O)OCc1ccccc1 (stereo not shown) [Compound 22]	–	>100 µM	>50 µM	< 2.5 fold
C[C@H](NP(=O)(OCC(CO)OCn1cnc2c(=O)[nH]c(N)nc21)Oc1cccc2ccccc12)C(=O)OCc1ccccc1 (stereo partly shown) [Compound 28]	considerable activity	>100 µM	>100 µM	–
CC(C)(NP(=O)(OCC(CO)CCn1cnc2c(=O)[nH]c(N)nc21)Oc1ccccc1)C(=O)OCc1ccccc1 (stereo not shown) [Compound 39]	–	>100 µM	>50 µM	–
CC(C)(NP(=O)(OCC(CO)CCn1cnc2c(=O)[nH]c(N)nc21)Oc1cccc2ccccc12)C(=O)OCc1ccccc1 (stereo not shown) [Compound 41]	–	>100 µM	>50 µM	–
COc1nc(N)nc2c1ncn2CCC(COP(=O)(N[C@@H](C)C(=O)OCc1ccccc1)Oc1ccccc1)COP(=O)(N[C@@H](C)C(=O)OCc1ccccc1)Oc1ccccc1 (stereo partly shown) [Compound 61]	–	–	>50 µM	–
COc1nc(N)nc2c1ncn2CCC(COP(=O)(N[C@@H](C)C(=O)OCC(C)(C)C)Oc1cccc2ccccc12)COP(=O)(N[C@@H](C)C(=O)OCC(C)(C)C)Oc1cccc2ccccc12 (stereo partly shown) [Compound 62]	–	≥100 µM	≥20 µM	–
CCC(C)(C)COC(=O)[C@H](C)NP(=O)(OCC(CCn1cnc2c(OC)nc(N)nc21)COP(=O)(N[C@@H](C)C(=O)OCC(C)(C)CC)Oc1cccc2ccccc12)Oc1cccc2ccccc12 (stereo partly shown) [Compound 64]	–	≥100 µM	–	–
COc1nc(N)nc2c1ncn2CCC(CO)COP(=O)(N[C@@H](C)C(=O)OCc1ccccc1)Oc1cccc2ccccc12 (stereo partly shown) [Compound 67]	retention of some activity	–	>50 µM	–
COC(=O)[C@H](C)NP(=O)(OCC(CO)CCn1cnc2c(OC)nc(N)nc21)Oc1cccc2ccccc12 (stereo partly shown) [Compound 70]	–	≥100 µM	≥50 µM	–
CCC(C)(C)COC(=O)[C@H](C)NP(=O)(OCC(CO)CCn1cnc2c(OC)nc(N)nc21)Oc1cccc2ccccc12 (stereo partly shown) [Compound 71]	–	100 µM	≥50 µM	–
